From US20210038668A1, “TRADITIONAL CHINESE MEDICINE COMPOSITION FOR PREVENTING AND/OR TREATING ISCHEMIC REPERFUSION INJURY” (TASLY PHARMACEUTICAL GROUP CO., LTD., priority 2018, published 2021)

Columns and labels:
[1] = tested on: VE-cadherin; assay: Western blotting of VE-cadherin, cortex of ischemic penumbra; type: in vivo, C57BL/6 mice; settings: brain tissue 24 hours after administration, sham = 1.00; tPA 10 mg/kg alone; T541 20 mg/kg + tPA 10 mg/kg
Experimental: After reperfused for 24 hours, mice were perfused by normal saline; Western blotting analysis was conducted to the penumbra field of infarcted right cerebral cortex. After perfused, mice brain tissue was taken out; cerebellum and prefrontal lobe were cut off; the brain tissue of right brain close to 1 cm of the central joint of left and right hemispheres along the sagittal view; infarcted penumbra field of the rest tissues was cut off along an 45° angle; the cerebral cortex of the penumbra field was peeled off and preserved at low temperature. Right cerebral cortex was taken and added 1×RIPA lysate and a Cocktail protease inhibitor (1:100, Cell Signaling Technology, US) for full pyrolysis and ultrasonic treatment, and then 17000 g were centrifuged for 30 minutes. Supernatant was taken and added 5×loading buffer by volume, boiled for 20 minutes in boiling water, and then preserved at −80° C. Excessive supernatant was taken out and quantified by a BCA protein quantification liquor (ThermoScientific, US) to measure absorbance value at 560 nm of ELIASA and to calculate the protein concentration according to a standard curve. […] The density of electrophoretic strips was analyzed by an image analysis software Quantityone. […]

[2] = tested on: mice with carotid artery thrombus; assay: 18-Score Modified Neurological Severity Score, mice; type: in vivo, C57BL/6 mice
Experimental: Neurological scoring was conducted to each group of […] after reperfused for 3 hours and 24 hours based upon scoring standards (18 scores), as shown in table 2:
Another scoring method is introduced hereafter. Modified neurological severity scores, mNSS, the score is within the range of 0-18. The scoring method is referring to 1.4 of Example 1.
18-Score Modified Neurological Severity Score (normal mice=0; the higher the score is, the more severe the nerve injury is), and a 15-score standard (normal mice=15, dead mice=0) are applied.

[3] = tested on: Claudin-5; assay: Western blotting of Claudin-5, endothelial cells after hypoxia/reoxygenation; type: cell-based; settings: rat brain endothelial cells, hypoxia 4.5 h/reoxygenation 3 h; tPA 20 mcg/ml alone (model group); T541 400 mcg/ml + tPA 20 mcg/ml
From the text: (§1) Establishment of rat brain endothelial cell H/R model: rat brain endothelial cells were purchased from ATCC, and then subcultured to 5-6 generations in normal conditions for further experiment. […]

[4] = tested on: Bax; assay: Western blotting of Bax, endothelial cells after hypoxia/reoxygenation; type: cell-based; settings: rat brain endothelial cells, hypoxia 4.5 h/reoxygenation 3 h; tPA 20 mcg/ml alone (model group); T541 400 mcg/ml + tPA 20 mcg/ml
From the text: as §1

## tPA: tissue-type plasminogen activator (tPA) for thrombolysis
[1]
  VE-cadherin/β-actin: 0.53 ± 0.07
[2]; 24 hours after administration, normal = 0, tPA 10 mg/kg alone, T541 20 mg/kg, T141 12 mg/kg, T582 15 mg/kg each + tPA 10 mg/kg
  18-Score Modified Neurological Severity Score: 7.45 ± 0.73
[2]; tPA alone, low/medium/high-dose T541 + tPA
  neurological scoring 24 hours after administration (in words): may not improve the neurological scoring
[3]
  Claudin-5/β-actin: 0.40 ± 0.06
[4]
  Bax: 2.44 ± 0.51
  Bax/Bcl-2: 4.57 ± 0.75
